Laboratory results reported in US7022725B2, “Isoxazole derivatives” (Takeda Pharmaceutical Company Limited, priority 2000, dated 2006).

What was measured:
[1] = test system: pancreatic Langerhans' islet of rats; test: Insulin secretion promoting action in pancreatic Langerhans' islet of rats; format: cell-based, rat; settings: test compound 100 μmol/L, 7.5 mmol/L glucose, 1 hr incubation; insulin secretion amount relative to control group, amended by DNA amount
Experimental: Insulin Secretion Promoting Action in Pancreatic Langerhans' Islet of Rats
The pancreas of 8-week-old male SD rat was treated with collagenase and the isolated Langerhans' islet was preincubated for 1 hr in a medium (KRB) containing 2.8 mmol/L glucose in a 24 well incubation plate, which was followed by incubation for 1 hr in KRB containing the test compound (100 μmol/L, see Table 2) and 7.5 mmol/L glucose (control group was free of test compound). The medium was recovered and the amount of the secreted insulin was measured using a radioimmunoassay kit (trademark: SHIONORIA insulin kit (manufactured by Shionogi & Co., Ltd.)). The Langerhans' islet was lysed by ultrasonication and the DNA amount was measured, based on which the insulin level in the medium was amended. The insulin secretion amount of the test compound group is expressed in a value (%) relative to the control group and shown in Table 2.

[2] = test system: Male SD rats; test: Hypoglycemic action in rats (oral glucose tolerance test); format: in vivo; settings: Rattus norvegicus, 0.5 h, male SD rats fasted overnight, glucose load 2 g/kg 60 min later, blood drawn 30 min after starting glucose loading, read-out: glucose level (% of control); for response vs control in vivo at 30 mg/kg: 30 mg/kg body weight oral; for response vs control in vivo at 50 mg/kg: 50 mg/kg body weight oral
Experimental: Hypoglycemic Action in Rats
Male SD rats (7 weeks of age, 5 per group) were fasted overnight and blood was drawn from the tail vein to measure the glucose level before administration of the test compound. Then the test compound (30 mg/kg body weight/10 mL (compounds of Examples 8, 16, 66, 68, 79, 94, 123) or 50 mg/kg body weight/10 mL (compounds of Examples 58, 70)) suspended in 0.5% methyl cellulose was orally administered to the rats using a gastric tube. Oral glucose tolerance test (2 g/kg body weight/10 mL) was started 60 min later. Blood was drawn at 30 min after starting the glucose loading, and glucose level was measured. The glucose level was measured using an automatic analyzer (HITACHI 7070).

melting point [°C]	SMILES	further results
118 to 119	O=C(O)CCc1cnoc1-c1ccc(F)c(Cl)c1 [Example 92, 3-[5-(3-chloro-4-fluorophenyl)-4-isoxazolyl]propionic acid]	insulin secretion promoting action (%) [1]: 156%
142 to 143	O=C(O)CCc1cnoc1-c1cc(Cl)c(Cl)s1 [Example 123, 3-[5-(4,5-dichloro-2-thienyl)-4-isoxazolyl]propionic acid]	response vs control in vivo at 30 mg/kg [2]: 86%
162 to 164	O=C(CCc1cnoc1-c1ccccc1)Nc1ccc(CP(=O)(O)O)cc1 [Example 413 (byproduct), 3-(5-Phenyl-4-isoxazolyl)-N-[4-(phosphonomethyl)phenyl]propionamide]	–
73 to 74	C[S+]([O-])c1ccc(-c2oncc2CCCO)cc1 (stereo not drawn) [Example 107, 3-[5-(4-methylsulfinylphenyl)-4-isoxazolyl]propan-1-ol]	–
140 to 141	O=C(O)CCc1conc1-c1ccc(F)c(Cl)c1 [Example 114, 3-[3-(3-chloro-4-fluorophenyl)-4-isoxazolyl]propionic acid]	–
63 to 64	Cc1onc(-c2cccc(C(F)(F)F)c2)c1CCC(=O)O [Example 145, 3-[5-methyl-3-(3-trifluoromethylphenyl)-4-isoxazolyl]propionic acid]	–
181 to 182	O=C(O)CCc1conc1-c1ccc(Cl)c(Cl)c1 [Example 111, 3-[3-(3,4-dichlorophenyl)-4-isoxazolyl]propionic acid]	–
94 to 95	O=C(O)CCc1cnoc1-c1ccc(-c2ccccc2)cc1 [Example 131, 3-[5-(4-phenylphenyl)-4-isoxazolyl]propionic acid]	–
158 to 159	Cc1cc(-c2oncc2CCC(=O)O)ccc1Cl [Example 95, 3-[5-(4-chloro-3-methylphenyl)-4-isoxazolyl]propionic acid]	–
187 to 188	Cc1onc(-c2ccc(Cl)cc2)c1CCC(=O)O [Example 141, 3-[3-(4-chlorophenyl)-5-methyl-4-isoxazolyl]propionic acid]	–
139 to 140	O=C(O)CCc1cnoc1-c1ccc(Cl)c(F)c1 [Example 108, 3-[5-(4-chloro-3-fluorophenyl)-4-isoxazolyl]propionic acid]	–
49 to 50	COC(=O)CCc1cnoc1-c1cc(Cl)c(Cl)s1 [Example 124, methyl 3-[5-(4,5-dichloro-2-thienyl)-4-isoxazolyl]propionate]	–
204 to 205	O=C(O)CCc1cnoc1-c1ccc([N+](=O)[O-])cc1 [Example 80, 3-[5-(4-nitrophenyl)-4-isoxazolyl]propionic acid]	–
110 to 111	O=C(O)CCc1cnoc1-c1cccc(Cl)c1 [Example 86, 3-[5-(3-chlorophenyl)-4-isoxazolyl]propionic acid]	–
148 to 149	O=C(O)CCc1conc1-c1ccc(Cl)c(F)c1 [Example 117, 3-[3-(4-chloro-3-fluorophenyl)-4-isoxazolyl]propionic acid]	–
79 to 81	Cc1onc(-c2ccccc2Cl)c1CCC(=O)O [Example 147, 3-[3-(2-chlorophenyl)-5-methyl-4-isoxazolyl]propionic acid]	–
151 to 152	O=C(O)CCc1conc1-c1ccc(F)c(Br)c1 [Example 125, 3-[3-(3-bromo-4-fluorophenyl)-4-isoxazolyl]propionic acid]	–
103 to 104	O=C(O)CCc1cnoc1-c1cc(Cl)ccc1Cl [Example 98, 3-[5-(2,5-dichlorophenyl)-4-isoxazolyl]propionic acid]	–
124 to 125	CSc1ccc(-c2oncc2CCC(=O)O)cc1 [Example 103, 3-[5-(4-methylthiophenyl)-4-isoxazolyl]propionic acid]	–

Further lines, the compound ahead of its results:

SMILES	melting point [°C]	further results
O=C(O)CCc1cnoc1-c1ccc(Cl)s1 [Example 64, 3-[5-(5-chloro-2-thienyl)-4-isoxazolyl]propionic acid]	138 to 139	insulin secretion promoting action (%) [1]: 273%
OCCCc1cnoc1-c1ccc(F)cc1 [Example 58, 3-[5-(4-fluorophenyl)-4-isoxazolyl]propan-1-ol]	–	response vs control in vivo at 50 mg/kg [2]: 85%
OCCCc1cnoc1-c1ccc(Cl)s1 [Example 66, 3-[5-(5-chloro-2-thienyl)-4-isoxazolyl]propan-1-ol]	–	response vs control in vivo at 30 mg/kg [2]: 80%
O=C(O)CCc1conc1-c1ccc(Cl)cc1 [Example 5, 3-[3-(4-chlorophenyl)-4-isoxazolyl]propionic acid]	149 to 150	–
OCCCc1cnoc1-c1ccc(Cl)cc1 [Example 16, 3-[5-(4-chlorophenyl)-4-isoxazolyl]propan-1-ol]	–	response vs control in vivo at 30 mg/kg [2]: 88%
O=C(O)CCc1cnoc1-c1ccc(F)cc1F [Example 59, 3-[5-(2,4-difluorophenyl)-4-isoxazolyl]propionic acid]	125 to 126	–
COC(=O)CCc1cnoc1-c1ccc(Cl)s1 [Example 65, methyl 3-[5-(5-chloro-2-thienyl)-4-isoxazolyl]propionate]	34 to 35	–
O=C(O)CCc1cnoc1-c1cc(Cl)cc(Cl)c1 [Example 74, 3-[5-(3,5-dichlorophenyl)-4-isoxazolyl]propionic acid]	143 to 144	–
O=C(O)CCc1cnoc1-c1ccc(Cl)c(Cl)c1 [Example 70, 3-[5-(3,4-dichlorophenyl)-4-isoxazolyl]propionic acid]	171 to 172	response vs control in vivo at 50 mg/kg [2]: 88%; insulin secretion promoting action (%) [1]: 235%
COC(=O)CCc1cnoc1-c1ccc(F)cc1F [Example 61, methyl 3-[5-(2,4-difluorophenyl)-4-isoxazolyl]propionate]	40 to 41	–
OCCCc1cnoc1-c1ccc(F)c(F)c1 [Example 79, 3-[5-(3,4-difluorophenyl)-4-isoxazolyl]propan-1-ol]	–	response vs control in vivo at 30 mg/kg [2]: 77%
CCNC(=O)CCc1cnoc1-c1ccccc1 [Example 23, N-ethyl-3-(5-phenyl-4-isoxazolyl)propionamide]	75 to 76	–
O=C(O)CCc1cnoc1-c1ccc(Cl)cc1 [Example 8, 3-[5-(4-chlorophenyl)-4-isoxazolyl]propionic acid]	–	response vs control in vivo at 30 mg/kg [2]: 85%; insulin secretion promoting action (%) [1]: 256%
OCCCc1cnoc1-c1ccc(Cl)c(Cl)c1 [Example 68, 3-[5-(3,4-dichlorophenyl)-4-isoxazolyl]propan-1-ol]	–	response vs control in vivo at 30 mg/kg [2]: 75%
O=C(O)CCc1cnoc1-c1ccc(F)cc1 [Example 11, 3-[5-(4-fluorophenyl)-4-isoxazolyl]propionic acid]	126 to 127	–
O=C(O)CCc1cnoc1-c1ccc(OC(F)(F)F)cc1 [Example 1, 3-[5-(4-trifluoromethoxyphenyl)-4-isoxazolyl]propionic acid]	116 to 118	–
O=C(O)CCc1cnoc1-c1ccc(F)c(F)c1 [Example 77, 3-[5-(3,4-difluorophenyl)-4-isoxazolyl]propionic acid]	102 to 103	insulin secretion promoting action (%) [1]: 201%
CCOP(=O)(Cc1ccc(NC(=O)CCc2cnoc2-c2ccc(F)cc2)cc1)OCC	134 to 135	–
Cc1ccc(-c2oncc2CCC(=O)O)cc1 [Example 12, 3-[5-(4-methylphenyl)-4-isoxazolyl]propionic acid]	121 to 122	–
CCNC(=O)/C=C/c1cnoc1-c1ccccc1 [Example 27, (E)-N-ethyl-3-(5-phenyl-4-isoxazolyl)propenamide]	156 to 157	–
OCCCc1cnoc1-c1ccc(F)c(Cl)c1 [Example 94, 3-[5-(3-chloro-4-fluorophenyl)-4-isoxazolyl]propan-1-ol]	–	response vs control in vivo at 30 mg/kg [2]: 81%
Cc1noc(-c2ccccc2)c1CCC(N)=O [Example 28, 3-(3-methyl-5-phenyl-4-isoxazolyl)propionamide]	149 to 151	–
NC(=O)CCc1cnoc1-c1ccccc1 [Example 22, 3-(5-phenyl-4-isoxazolyl)propionamide]	151 to 152	–
OCCCc1cnoc1-c1ccc(C(F)(F)F)cc1 [Example 62, 3-[5-(4-trifluoromethylphenyl)-4-isoxazolyl]propan-1-ol]	85 to 86	–
O=C(O)/C=C/c1cnoc1-c1ccccc1 [Example 24, (E)-3-(5-phenyl-4-isoxazolyl)propenoic acid]	197 to 199	–
